Results reported in ChEMBL document CHEMBL3286395, “Tabercarpamines A-J, apoptosis-inducing indole alkaloids from the leaves of Tabernaemontana corymbosa” (J Nat Prod, 2014).

What was measured:
[1] = tested on: HepG2; experiment: Cytotoxicity against human HepG2 cells assessed as decrease in cell viability after 48 hrs by MTT assay; format: functional, cell-based; conditions: HepG2, 48 h
[2] = tested on: MCF7; experiment: Cytotoxicity against human MCF7 cells assessed as decrease in cell viability after 48 hrs by MTT assay; format: functional, cell-based; conditions: MCF7, 48 h
[3] = tested on: SMMC-7721; experiment: Cytotoxicity against human SMMC7721 cells assessed as decrease in cell viability after 48 hrs by MTT assay; format: functional, cell-based; conditions: SMMC-7721, 48 h
[4] = tested on: HepG2; experiment: Induction of apoptosis in human HepG2 cells assessed as early stage apoptotic cells at 6.25 uM after 48 hrs using annexin V-FITC/propidium iodide staining by flow cytometry (reference value: 10.15%); format: functional
[5] = tested on: HepG2; experiment: Induction of apoptosis in human HepG2 cells assessed as apoptotic rate at 6.25 uM after 48 hrs using annexin V-FITC/propidium iodide staining by flow cytometry (reference value: 10.80%); format: functional
[6] = tested on: HepG2; experiment: Induction of apoptosis in human HepG2 cells assessed as late stage apoptotic cells at 12.50 uM after 48 hrs using annexin V-FITC/propidium iodide staining by flow cytometry (reference value: 0.65%); format: functional
[7] = tested on: HepG2; experiment: Induction of apoptosis in human HepG2 cells assessed as necrotic cells at 6.25 uM after 48 hrs using annexin V-FITC/propidium iodide staining by flow cytometry (reference value: 2.39%); format: functional
[8] = tested on: HepG2; experiment: Induction of apoptosis in human HepG2 cells assessed as viable cells at 12.50 uM after 48 hrs using annexin V-FITC/propidium iodide staining by flow cytometry (reference value: 86.80%); format: functional; conditions: HepG2, 48 h, read-out: Activity
[9] = tested on: HepG2; experiment: Induction of apoptosis in human HepG2 cells assessed as early stage apoptotic cells at 12.50 uM after 48 hrs using annexin V-FITC/propidium iodide staining by flow cytometry (reference value: 10.15%); format: functional
[10] = tested on: HepG2; experiment: Induction of apoptosis in human HepG2 cells assessed as necrotic cells at 25 uM after 48 hrs using annexin V-FITC/propidium iodide staining by flow cytometry (reference value: 2.39%); format: functional
[11] = tested on: HepG2; experiment: Induction of apoptosis in human HepG2 cells assessed as apoptotic rate at 25 uM after 48 hrs using annexin V-FITC/propidium iodide staining by flow cytometry (reference value: 10.80%); format: functional
[12] = tested on: HepG2; experiment: Induction of apoptosis in human HepG2 cells assessed as early stage apoptotic cells at 25 uM after 48 hrs using annexin V-FITC/propidium iodide staining by flow cytometry (reference value: 10.15%); format: functional
[13] = tested on: HepG2; experiment: Induction of apoptosis in human HepG2 cells assessed as apoptotic rate at 12.50 uM after 48 hrs using annexin V-FITC/propidium iodide staining by flow cytometry (reference value: 10.80%); format: functional
[14] = tested on: HepG2; experiment: Induction of apoptosis in human HepG2 cells assessed as viable cells at 25 uM after 48 hrs using annexin V-FITC/propidium iodide staining by flow cytometry (reference value: 86.80%); format: functional; conditions: HepG2, 48 h, read-out: Activity
[15] = tested on: HepG2; experiment: Induction of apoptosis in human HepG2 cells assessed as late stage apoptotic cells at 6.25 uM after 48 hrs using annexin V-FITC/propidium iodide staining by flow cytometry (reference value: 0.65%); format: functional
[16] = tested on: HepG2; experiment: Induction of apoptosis in human HepG2 cells assessed as viable cells at 6.25 uM after 48 hrs using annexin V-FITC/propidium iodide staining by flow cytometry (reference value: 86.80%); format: functional; conditions: HepG2, 48 h, read-out: Activity
[17] = tested on: HepG2; experiment: Induction of apoptosis in human HepG2 cells assessed as late stage apoptotic cells at 25 uM after 48 hrs using annexin V-FITC/propidium iodide staining by flow cytometry (reference value: 0.65%); format: functional
[18] = tested on: HepG2; experiment: Induction of apoptosis in human HepG2 cells assessed as necrotic cells at 12.50 uM after 48 hrs using annexin V-FITC/propidium iodide staining by flow cytometry (reference value: 2.39%); format: functional

SMILES	IC50 [1]	IC50 [2]	IC50 [3]	other results
CC[C@@]12C[C@@H](C(=O)OC)C3=Nc4cc(OC)ccc4[C@@]34CCN(CCOC1=O)[C@H]24	> 100 µM	> 100 µM	> 100 µM	–
C/C=C1/CN(C)[C@H]2Cc3c([nH]c4ccccc34)[C@H](c3cc4c5c6n(c4cc3OC)C[C@H]3C[C@@H](CC)[C@@H](NCC5)[C@@]6(C(=O)OC)C3)C[C@H]1[C@]2(CO)C(=O)OC	3.31 µM	8.54 µM	6.76 µM	Activity [4]: 10.19%; Activity [5]: 11.82%; Activity [6]: 8.47%; Activity [7]: 3.17%; viability at 12.5 µM [8]: 72.4%; Activity [9]: 11.3%; Activity [10]: 15.59%; Activity [11]: 50.51%; Activity [12]: 19.54%; Activity [13]: 19.77%; viability at 25 µM [14]: 33.9%; Activity [15]: 1.63%; viability at 6.25 µM [16]: 85%; Activity [17]: 30.97%; Activity [18]: 7.85%
CC[C@@]12C[C@@H](C(=O)OC)C3=Nc4cc(OC)ccc4[C@@]34CCN(CCOC1=O)[C@@H]24	> 100 µM	> 100 µM	> 100 µM	–
C/C=C1/CN(C)[C@H]2Cc3c([nH]c4ccccc34)[C@H](c3cc4c5c([nH]c4cc3OC)[C@@]3(C(=O)OC)C[C@H]4C[C@H](CC)[C@H]3N(CC5)C4)C[C@H]1[C@]2(CO)C(=O)OC	12.8 µM	38 µM	4.63 µM	–
C/C=C1/CN(C)[C@H]2Cc3c([nH]c4ccccc34)[C@H](c3cc4c(cc3OC)c3c5n4C[C@H]4C[C@@H](CC)[C@@H](NCC3)[C@@]5(C(=O)OC)C4)C[C@H]1[C@]2(CO)C(=O)OC	11.3 µM	11 µM	15 µM	–
C/C=C1/CN(C)[C@H]2Cc3c([nH]c4ccccc34)[C@H](c3c(OC)ccc4c5c([nH]c34)[C@@]3(C(=O)OC)C[C@H]4C[C@H](CC)[C@@H]3N(CC5)C4)C[C@H]1[C@]2(CO)C(=O)OC	13.1 µM	14.6 µM	12.6 µM	–
CC[C@H]1C[C@@H]2Cn3c4c(c5ccc(OC)cc53)CCN[C@H]1[C@@]4(C(=O)OC)C2	> 100 µM	> 100 µM	> 100 µM	–
COC(=O)[C@@]12C[C@@H]3C[C@H]([C@H](C)O)[C@H]1NCCc1c2n(c2cc(OC)ccc12)C3	> 100 µM	> 100 µM	> 100 µM	–
CC[C@H]1C[C@H]2C[C@@]3(C(=O)OC)c4c(c5ccc(OC)cc5n4C2=O)CCN[C@H]13	> 100 µM	> 100 µM	> 100 µM	–
CC[C@]1(C(=O)O)C[C@@H](C(=O)OC)C2=Nc3cc(OC)ccc3[C@@]23CCN(CCO)[C@H]13	> 100 µM	> 100 µM	> 100 µM	–
CC[C@]1(C(=O)O)C[C@@H](C(=O)OC)C2=Nc3cc(OC)ccc3[C@@]23CCN(CCO)[C@@H]13	> 100 µM	> 100 µM	> 100 µM	–
COC(=O)[C@@]12C[C@@H]3C[C@H]([C@H](C)O)[C@H]1NCCc1c2n(c2ccccc12)C3	> 100 µM	> 100 µM	> 100 µM	–
